Test: xn = mol fraction of the nth substance listed
Settings: 291.15 K, Liquid, Vibrating tube method

O=C=O [carbon dioxide] + CCO
Settings	mass density [kg/m3]
x1 = 0.184	819.5
x1 = 0.227	826.4
x1 = 0.304	836.8
x1 = 0.455	855.1
x1 = 0.728	865.9
x1 = 0.838	856.5
x1 = 0.951	828
x1 = 0.983	811.3
x1 = 0.996	800.6
